According to publication PMC12140300, “Development of Carbon‐11 Labeled Pyrimidine Derivatives as Novel Positron Emission Tomography (PET) Agents Enabling Brain Sigma‐1 Receptor Imaging” (Advanced Science, 2025):

Tests used:
σ1R = target: T1, σ1R (Cavia porcellus, UniProt Q60492); test: Ex vivo competitive radioligand binding assay for σ1R, [3H](+)-pentazocine; parameters: species or system Dunkin Hartley guinea pig; details: guinea pig brain membranes
T1 construct: guinea pig brain membranes protein; from tissue; host or cells: guinea pig brain membranes
T1 sequence (Q60492 whole entry): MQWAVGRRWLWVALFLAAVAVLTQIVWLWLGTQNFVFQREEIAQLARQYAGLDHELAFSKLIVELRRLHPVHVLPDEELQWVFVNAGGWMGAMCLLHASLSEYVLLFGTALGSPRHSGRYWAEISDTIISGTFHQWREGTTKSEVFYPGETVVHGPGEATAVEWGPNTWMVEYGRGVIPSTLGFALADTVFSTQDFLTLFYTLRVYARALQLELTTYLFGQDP
Description: (§1) The ex vivo binding affinities of σRs of CNY‐01 and CNY‐02 were measured using a competitive radioligand binding assay.^[ [35] ^]
The following specific radioligands and tissue sources were used: (a) σ 1R, [^3H] (+)‐pentazocine, Dunkin Hartley guinea pig brain membranes; (b) σ 2R, [^3H]‐DTG, Dunkin Hartley guinea pig brain membranes. Membrane preparation of brain tissue was performed following the previously reported method.4 Generally, for σ 1R binding test, guinea pig brain membranes protein (5‐10 mg), [^3H]‐(+)‐pentazocine (4 nM), test compounds solution in various concentrations (10^−5 to 10^−10 M) were incubated at 25 °C for 180 min in Tris‐HCl buffer (pH 8.0). For σ 2R binding study, the membrane suspension was incubated with [^3H]‐DTG (3 nM), different concentration test compounds, within 400 nM (+)‐SKF10047 to block σ 1R. Nonspecific binding was conducted in both binding assays under similar conditions, adding […] haloperidol. After incubation, the mixture was rapidly filtrated through Whatman GF/B glass filters, washed twice and transferred to scintillation vials, and the radioactivity bound was measured by a Beckman LS 6500 liquid scintillation counter. Inhibition constants (Ki) were calculated based on the Cheng and Prusoff equation after the IC50 values were obtained.

5-HT1B = 5-HT1B (Homo sapiens, UniProt P28222); test: PDSP radioligand assay; type: binding
5-HT1B, sequence (P28222 whole entry, species assumed): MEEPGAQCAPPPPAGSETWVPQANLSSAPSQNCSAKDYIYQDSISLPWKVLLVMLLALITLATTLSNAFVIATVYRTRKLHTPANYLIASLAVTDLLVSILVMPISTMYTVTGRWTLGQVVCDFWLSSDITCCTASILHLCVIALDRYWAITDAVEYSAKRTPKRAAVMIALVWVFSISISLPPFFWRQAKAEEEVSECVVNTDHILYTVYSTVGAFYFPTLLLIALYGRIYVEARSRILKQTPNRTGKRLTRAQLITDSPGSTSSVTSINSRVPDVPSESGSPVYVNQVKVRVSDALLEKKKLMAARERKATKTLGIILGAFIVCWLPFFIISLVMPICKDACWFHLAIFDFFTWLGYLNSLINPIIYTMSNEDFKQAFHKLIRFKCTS
Description: as §1
(§2) Details of individual binding assay conditions and protocols are available at the NIMH PDSP website: https://pdsp.unc.edu/pdspweb/.

5-HT1D = 5-HT1D (Homo sapiens, UniProt P28221); test: PDSP radioligand assay; type: binding
5-HT1D, sequence (P28221 whole entry, species assumed): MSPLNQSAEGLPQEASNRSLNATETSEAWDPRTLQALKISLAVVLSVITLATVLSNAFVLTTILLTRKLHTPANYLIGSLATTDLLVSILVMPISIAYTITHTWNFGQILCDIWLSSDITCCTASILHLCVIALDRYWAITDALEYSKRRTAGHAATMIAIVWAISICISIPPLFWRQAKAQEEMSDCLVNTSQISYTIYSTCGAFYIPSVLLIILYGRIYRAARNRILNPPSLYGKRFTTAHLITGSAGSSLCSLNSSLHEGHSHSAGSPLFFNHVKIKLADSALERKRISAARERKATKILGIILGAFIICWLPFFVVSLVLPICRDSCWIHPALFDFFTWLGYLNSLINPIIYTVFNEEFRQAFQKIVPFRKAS
Description: as §1, §2

5-HT2B = 5-HT2B (Homo sapiens, UniProt P41595); test: PDSP radioligand assay; type: binding
5-HT2B, sequence (P41595 whole entry, species assumed): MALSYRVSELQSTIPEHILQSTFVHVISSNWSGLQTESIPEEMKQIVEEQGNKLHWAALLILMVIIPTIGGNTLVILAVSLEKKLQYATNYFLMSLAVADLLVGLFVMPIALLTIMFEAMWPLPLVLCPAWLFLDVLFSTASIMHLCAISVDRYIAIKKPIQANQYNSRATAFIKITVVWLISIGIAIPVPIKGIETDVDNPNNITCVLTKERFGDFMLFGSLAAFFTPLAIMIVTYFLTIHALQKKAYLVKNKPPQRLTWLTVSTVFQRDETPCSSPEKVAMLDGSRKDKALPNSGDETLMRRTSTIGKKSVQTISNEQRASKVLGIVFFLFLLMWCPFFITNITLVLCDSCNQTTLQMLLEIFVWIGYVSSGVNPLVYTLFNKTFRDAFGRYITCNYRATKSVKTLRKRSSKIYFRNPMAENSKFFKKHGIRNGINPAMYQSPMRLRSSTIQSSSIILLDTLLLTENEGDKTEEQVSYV
Description: as §1, §2

5-HT2C = target: T2, 5-HT2C (Homo sapiens, UniProt P28335); test: PDSP radioligand assay; type: binding
T2 sequence (P28335 33-458): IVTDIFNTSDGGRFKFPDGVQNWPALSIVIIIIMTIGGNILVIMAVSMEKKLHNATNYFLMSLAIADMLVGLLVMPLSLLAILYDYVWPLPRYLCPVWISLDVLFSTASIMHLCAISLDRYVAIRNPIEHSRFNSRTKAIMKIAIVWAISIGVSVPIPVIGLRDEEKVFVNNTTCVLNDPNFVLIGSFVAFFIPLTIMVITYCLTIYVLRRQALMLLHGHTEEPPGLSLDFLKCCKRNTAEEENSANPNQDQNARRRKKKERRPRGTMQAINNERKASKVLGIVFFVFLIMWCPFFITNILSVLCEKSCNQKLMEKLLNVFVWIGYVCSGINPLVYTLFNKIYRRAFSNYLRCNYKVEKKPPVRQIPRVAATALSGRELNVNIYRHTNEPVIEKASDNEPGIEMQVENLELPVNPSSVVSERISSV
Description: as §1, §2

5-HT3 = target: T3, 5-HT3 (Homo sapiens, UniProt P46098); test: PDSP radioligand assay; type: binding
T3 construct: purchased NIMH Psychoactive Drug Screening Program (PDSP)
Description: as §1, §2

5-HT5A = target: T4, 5-HT5A (Homo sapiens, UniProt P47898); test: PDSP radioligand assay; type: binding
T4 construct: purchased NIMH Psychoactive Drug Screening Program (PDSP)
Description: as §1, §2

5-HT7A = 5-HT7A (Homo sapiens, UniProt P34969); test: PDSP radioligand assay; type: binding
5-HT7A, sequence (P34969 1-445 isoform P34969-2): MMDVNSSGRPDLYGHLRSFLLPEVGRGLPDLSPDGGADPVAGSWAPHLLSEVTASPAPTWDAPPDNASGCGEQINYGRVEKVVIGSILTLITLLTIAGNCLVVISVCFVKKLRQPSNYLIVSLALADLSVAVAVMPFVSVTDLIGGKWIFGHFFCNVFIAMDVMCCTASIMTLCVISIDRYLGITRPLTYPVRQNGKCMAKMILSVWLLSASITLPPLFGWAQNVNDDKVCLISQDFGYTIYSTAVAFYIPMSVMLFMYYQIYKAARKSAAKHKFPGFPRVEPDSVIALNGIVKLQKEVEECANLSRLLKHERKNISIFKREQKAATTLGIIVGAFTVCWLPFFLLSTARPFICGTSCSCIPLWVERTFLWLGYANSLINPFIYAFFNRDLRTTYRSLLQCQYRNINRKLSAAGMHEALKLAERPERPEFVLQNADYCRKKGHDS
Description: as §1, §2

Alpha1A = target: T5, Alpha1A (Homo sapiens, UniProt P35348); test: PDSP radioligand assay; type: binding
T5 construct: purchased NIMH Psychoactive Drug Screening Program (PDSP)
Description: as §1, §2

Alpha2A = target: T6, Alpha2A (Homo sapiens, UniProt P08913); test: PDSP radioligand assay; type: binding
T6 sequence (P08913 1-465): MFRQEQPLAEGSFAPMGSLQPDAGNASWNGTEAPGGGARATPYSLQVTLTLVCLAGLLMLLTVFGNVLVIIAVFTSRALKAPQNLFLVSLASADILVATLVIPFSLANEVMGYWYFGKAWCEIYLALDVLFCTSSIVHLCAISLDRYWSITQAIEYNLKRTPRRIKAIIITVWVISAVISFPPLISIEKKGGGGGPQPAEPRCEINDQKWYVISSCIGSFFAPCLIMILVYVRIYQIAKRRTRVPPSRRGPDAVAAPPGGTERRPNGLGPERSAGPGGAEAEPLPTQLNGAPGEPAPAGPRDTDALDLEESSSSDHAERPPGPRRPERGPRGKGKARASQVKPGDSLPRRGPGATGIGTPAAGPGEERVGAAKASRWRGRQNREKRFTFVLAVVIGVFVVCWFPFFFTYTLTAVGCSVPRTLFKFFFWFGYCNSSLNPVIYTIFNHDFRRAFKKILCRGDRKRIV
Description: as §1, §2

BZP Rat Brain Site = test: PDSP radioligand assay; type: binding; details: 10 µM
Description: as §1, §2

Beta2 = target: T7, Beta2 (Homo sapiens, UniProt P07550); test: PDSP radioligand assay; type: binding
T7 construct: purchased NIMH Psychoactive Drug Screening Program (PDSP)
Description: as §1, §2

D1 = D1 (Homo sapiens, UniProt P21728); test: PDSP radioligand assay; type: binding
D1, sequence (P21728 whole entry): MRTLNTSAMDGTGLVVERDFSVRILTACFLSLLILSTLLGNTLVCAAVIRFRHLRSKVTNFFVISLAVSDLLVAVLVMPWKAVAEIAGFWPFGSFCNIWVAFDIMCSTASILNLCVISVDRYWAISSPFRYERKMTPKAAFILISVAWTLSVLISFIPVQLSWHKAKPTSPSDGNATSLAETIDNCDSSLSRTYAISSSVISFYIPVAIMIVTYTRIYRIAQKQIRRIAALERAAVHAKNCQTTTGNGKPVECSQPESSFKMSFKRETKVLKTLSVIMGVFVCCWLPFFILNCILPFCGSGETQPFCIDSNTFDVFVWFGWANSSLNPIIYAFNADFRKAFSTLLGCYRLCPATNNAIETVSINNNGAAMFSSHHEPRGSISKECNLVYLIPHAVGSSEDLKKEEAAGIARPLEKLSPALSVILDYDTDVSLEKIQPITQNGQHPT
Description: as §1, §2

DAT = target: T8, DAT (Homo sapiens, UniProt Q01959); test: PDSP radioligand assay; type: binding
T8 construct: purchased NIMH Psychoactive Drug Screening Program (PDSP)
Description: as §1, §2

H1 = H1 (Homo sapiens, UniProt P35367); test: PDSP radioligand assay; type: binding
H1, sequence (P35367 whole entry): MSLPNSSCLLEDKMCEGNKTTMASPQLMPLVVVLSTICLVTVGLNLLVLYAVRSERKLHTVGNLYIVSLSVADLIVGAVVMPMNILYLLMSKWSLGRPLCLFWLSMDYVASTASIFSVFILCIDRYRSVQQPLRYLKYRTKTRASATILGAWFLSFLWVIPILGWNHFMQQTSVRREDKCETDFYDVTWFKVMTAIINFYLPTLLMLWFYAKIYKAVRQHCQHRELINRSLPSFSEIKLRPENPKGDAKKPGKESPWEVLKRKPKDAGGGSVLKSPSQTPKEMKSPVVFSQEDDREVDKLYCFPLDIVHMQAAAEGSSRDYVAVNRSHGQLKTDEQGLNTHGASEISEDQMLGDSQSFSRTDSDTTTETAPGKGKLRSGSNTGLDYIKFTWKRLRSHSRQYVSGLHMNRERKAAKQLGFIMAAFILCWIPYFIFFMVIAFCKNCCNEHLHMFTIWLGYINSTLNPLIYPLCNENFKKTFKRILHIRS
Description: as §1, §2

H2 = H2 (Homo sapiens, UniProt P25021); test: PDSP radioligand assay; type: binding
H2, sequence (P25021 whole entry): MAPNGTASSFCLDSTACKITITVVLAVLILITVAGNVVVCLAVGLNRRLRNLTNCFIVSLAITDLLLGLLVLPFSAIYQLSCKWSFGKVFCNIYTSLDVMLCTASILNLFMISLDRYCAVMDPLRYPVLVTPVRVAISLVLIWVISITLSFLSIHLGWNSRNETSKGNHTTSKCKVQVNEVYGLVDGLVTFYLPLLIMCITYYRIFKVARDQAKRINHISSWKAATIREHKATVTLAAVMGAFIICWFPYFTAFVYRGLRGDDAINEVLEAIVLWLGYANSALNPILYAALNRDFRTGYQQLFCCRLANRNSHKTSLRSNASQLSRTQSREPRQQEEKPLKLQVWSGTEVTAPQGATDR
Description: as §1, §2

KOR = KOR (Homo sapiens, UniProt P41145); test: PDSP radioligand assay; type: binding
KOR, sequence (P41145 whole entry): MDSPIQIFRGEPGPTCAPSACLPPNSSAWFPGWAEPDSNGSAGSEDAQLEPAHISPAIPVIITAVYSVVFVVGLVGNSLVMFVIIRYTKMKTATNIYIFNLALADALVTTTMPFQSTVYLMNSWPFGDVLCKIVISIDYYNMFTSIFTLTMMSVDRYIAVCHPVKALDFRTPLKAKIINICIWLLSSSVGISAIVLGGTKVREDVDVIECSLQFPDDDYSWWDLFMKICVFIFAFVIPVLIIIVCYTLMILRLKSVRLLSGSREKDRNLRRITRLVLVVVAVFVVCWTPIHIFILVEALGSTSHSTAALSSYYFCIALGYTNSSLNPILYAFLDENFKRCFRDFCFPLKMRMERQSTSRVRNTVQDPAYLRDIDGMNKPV
Description: as §1, §2

M3 = M3 (Homo sapiens, UniProt P20309); test: PDSP radioligand assay; type: binding
M3, sequence (P20309 whole entry): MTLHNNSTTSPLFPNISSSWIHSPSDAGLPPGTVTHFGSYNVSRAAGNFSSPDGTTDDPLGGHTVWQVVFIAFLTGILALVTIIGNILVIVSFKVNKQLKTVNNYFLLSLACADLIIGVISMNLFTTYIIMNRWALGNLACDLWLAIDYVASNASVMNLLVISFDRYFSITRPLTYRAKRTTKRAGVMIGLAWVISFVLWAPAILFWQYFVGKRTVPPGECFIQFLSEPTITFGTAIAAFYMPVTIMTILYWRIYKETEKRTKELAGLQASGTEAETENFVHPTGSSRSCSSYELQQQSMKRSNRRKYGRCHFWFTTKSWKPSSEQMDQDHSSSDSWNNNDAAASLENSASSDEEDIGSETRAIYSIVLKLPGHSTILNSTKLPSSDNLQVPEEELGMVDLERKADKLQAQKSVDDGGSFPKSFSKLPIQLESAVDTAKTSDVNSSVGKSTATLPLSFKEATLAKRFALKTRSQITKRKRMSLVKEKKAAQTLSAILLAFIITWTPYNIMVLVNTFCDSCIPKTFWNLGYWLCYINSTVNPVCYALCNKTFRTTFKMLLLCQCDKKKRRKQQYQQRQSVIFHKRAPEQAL
Description: as §1, §2

M4 = target: T9, M4 (Homo sapiens, UniProt P08173); test: PDSP radioligand assay; type: binding
T9 construct: purchased NIMH Psychoactive Drug Screening Program (PDSP)

NET = NET (Homo sapiens, UniProt P23975); test: PDSP radioligand assay; type: binding
NET, sequence (P23975 whole entry): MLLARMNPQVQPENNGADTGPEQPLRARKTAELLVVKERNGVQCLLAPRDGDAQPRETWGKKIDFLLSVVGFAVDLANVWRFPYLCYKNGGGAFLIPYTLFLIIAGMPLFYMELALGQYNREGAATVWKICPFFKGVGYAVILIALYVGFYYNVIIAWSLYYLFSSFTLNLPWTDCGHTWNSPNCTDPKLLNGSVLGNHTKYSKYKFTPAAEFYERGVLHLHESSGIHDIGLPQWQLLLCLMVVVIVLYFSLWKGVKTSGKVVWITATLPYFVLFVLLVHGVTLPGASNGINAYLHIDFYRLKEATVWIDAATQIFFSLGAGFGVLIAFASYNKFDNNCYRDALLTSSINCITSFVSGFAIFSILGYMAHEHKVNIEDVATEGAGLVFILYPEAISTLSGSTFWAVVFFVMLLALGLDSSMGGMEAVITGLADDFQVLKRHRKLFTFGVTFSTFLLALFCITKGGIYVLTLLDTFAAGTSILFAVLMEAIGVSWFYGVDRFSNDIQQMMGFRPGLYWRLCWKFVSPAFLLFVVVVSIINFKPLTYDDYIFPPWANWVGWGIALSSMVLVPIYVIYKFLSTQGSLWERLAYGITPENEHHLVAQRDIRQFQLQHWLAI

PBR = target: T10, PBR (Rattus norvegicus, UniProt P16257); test: PDSP radioligand assay; type: binding
T10 construct: purchased NIMH Psychoactive Drug Screening Program (PDSP)

SERT = target: T11, SERT (Homo sapiens, UniProt P31645); test: PDSP radioligand assay; type: binding
T11 construct: purchased NIMH Psychoactive Drug Screening Program (PDSP)

SMILES	Ki (σ1R) [nM]	Ki (5-HT1B) [nM]	inhibition at 10 µM (5-HT1B) [%]	Ki (5-HT1D) [nM]	inhibition at 10 µM (5-HT1D) [%]	Ki (5-HT2B) [nM]	inhibition at 10 µM (5-HT2B) [%]	inhibition at 10 µM (5-HT2C) [%]	inhibition at 10 µM (5-HT3) [%]	inhibition at 10 µM (5-HT5A) [%]	inhibition at 10 µM (5-HT7A) [%]	inhibition at 10 µM (Alpha1A) [%]	inhibition at 10 µM (Alpha2A) [%]	Mean % (inhibition) (BZP Rat Brain Site) [%]	inhibition at 10 µM (Beta2) [%]	inhibition at 10 µM (D1) [%]	inhibition at 10 µM (DAT) [%]	inhibition at 10 µM (H1) [%]	Ki (H2) [nM]	inhibition at 10 µM (H2) [%]	other results
COc1ccc(-c2nc(C)c(Cl)c(OCCCN3CCCCC3)n2)cc1 [CNY-01, 5‐chloro‐2‐(4‐methoxyphenyl)‐4‐methyl‐6‐(3‐(piperidin‐1‐yl)propoxy)pyrimidine]	3.88	3200	79.8	2670	91.9	914	77.1	-5.06	7.61	31.9	59.3	21.6	55.9	10.99	4.03	19	20.9	93.2	709	89.7	Ki (5-HT7A): 4700 nM; Ki (Alpha2A): 2370 nM; Ki (H1): 667 nM; Ki (KOR): 1060 nM; inhibition at 10 µM (KOR): 61.1%; inhibition at 10 µM (M3): 16.3%; inhibition at 10 µM (M4): 20.6%; Ki (NET): 2100 nM; inhibition at 10 µM (NET): 50.4%; inhibition at 10 µM (PBR): 25.8%; inhibition at 10 µM (SERT): 21.8%
Cc1nc(-c2ccc(Cl)cc2)nc(OCCCN2CCN(C)CC2)c1Cl [CNY-02, 5‐chloro‐2‐(4‐chlorophenyl)‐4‐methyl‐6‐(3‐(4‐methylpiperazin‐1‐yl)propoxy)pyrimidine]	2.05	3740	60.3	7280	54.5	530	90.4	89.4	-1.23	29.4	-4.02	-1.08	47.6	23.26	11.7	52.1	33.8	43.7	1240	84.9	Ki (5-HT2C): 268 nM; Ki (D1): 2340 nM; inhibition at 10 µM (KOR): 20.4%; Ki (M3): 727 nM; inhibition at 10 µM (M3): 54%; inhibition at 10 µM (M4): 31.1%; inhibition at 10 µM (NET): 0.14%; inhibition at 10 µM (PBR): 26%; inhibition at 10 µM (SERT): 43%
